Data taken from ChEMBL document CHEMBL3997807, “Isatin-β-thiocarbohydrazones: Microwave-assisted synthesis, antitumor activity and structure-activity relationship” (Eur J Med Chem, 2017).

Key:
HeLa = assay: Growth inhibition of human HeLa cells by MTT assay; assay type: functional, cell-based
COS-7 = assay: Growth inhibition of African green monkey COS7 cells by MTT assay; assay type: functional, cell-based; details: Chlorocebus aethiops
Ehrlich [1] = assay: Antitumor activity against mouse EAC cells implanted in Swiss albino mouse assessed as viable tumor cell count in ascitic fluid at 0.5 mg for 9 days (reference value: 83.2 10^6/100uL); assay type: functional
Ehrlich [2] = assay: Antitumor activity against mouse EAC cells implanted in Swiss albino mouse assessed as hemoglobin count in blood at 0.5 mg for 9 days (reference value: 8.15 g/dL); assay type: functional
Ehrlich [3] = assay: Antitumor activity against mouse EAC cells implanted in Swiss albino mouse assessed as RBC count in blood at 0.5 mg for 9 days (reference value: 3.69 10^6/mm3); assay type: functional
Ehrlich [4] = assay: Antitumor activity against mouse EAC cells implanted in Swiss albino mouse assessed as increase in mean life span at 0.5 mg for 9 days relative to control; assay type: functional
Ehrlich [5] = assay: Antitumor activity against mouse EAC cells implanted in Swiss albino mouse assessed as tumor volume in ascitic fluid at 0.5 mg for 9 days (reference value: 9.85 mL); assay type: functional
Ehrlich [6] = assay: Antitumor activity against mouse EAC cells implanted in Swiss albino mouse assessed as WBC count in blood at 0.5 mg for 9 days (reference value: 23.96 10^3/mm3); assay type: functional

Compound	IC50 (HeLa)	IC50 (COS-7)	Activity (Ehrlich [1])	Activity (Ehrlich [2])	Activity (Ehrlich [3])	ILS (Ehrlich [4])	Activity (Ehrlich [5])	Activity (Ehrlich [6])
COc1ccc(/C=N/NC(=S)N/N=C2\C(=O)Nc3ccc(C)cc32)c(OC)c1	> 50 µM	> 50 µM						
O=C1Nc2ccc(Br)cc2/C1=N/NC(=S)N/N=C/c1c(F)cccc1Cl	1.61 µM	2.56 µM	57.5 ×10⁶ /100microL	9.96 g/dL	4.09 ×10⁶ /mm3	72.4%	6.7 mL	13.05 ×10³ /mm3
COc1ccc(/C=N/NC(=S)N/N=C2\C(=O)Nc3ccc(Br)cc32)cc1O	2.22 µM	3.09 µM	66.78 ×10⁶ /100microL	9.11 g/dL	3.86 ×10⁶ /mm3	24.1%	7.8 mL	19.48 ×10³ /mm3
Cc1ccc2c(c1)/C(=N/NC(=S)N/N=C/c1ccc(Br)cc1)C(=O)N2	> 50 µM	> 50 µM						
Cc1ccc2c(c1)/C(=N/NC(=S)N/N=C/c1c(F)cccc1Cl)C(=O)N2	1.51 µM	2.19 µM	51.52 ×10⁶ /100microL	10.09 g/dL	4.19 ×10⁶ /mm3	72.4%	6.2 mL	12.26 ×10³ /mm3
COc1ccc(/C=N/NC(=S)N/N=C2\C(=O)Nc3ccc(Br)cc32)c(OC)c1	> 50 µM	> 50 µM						
COc1ccc(/C=N/NC(=S)N/N=C2\C(=O)Nc3ccc(C)cc32)cc1O	2.73 µM	3.19 µM	38.75 ×10⁶ /100microL	11.15 g/dL	4.46 ×10⁶ /mm3	110.9%	3.26 mL	9.23 ×10³ /mm3
O=C1Nc2ccc(Br)cc2/C1=N/NC(=S)N/N=C/c1ccccc1Br	> 50 µM	> 50 µM						
O=C1Nc2ccc(Br)cc2/C1=N/NC(=S)N/N=C/c1ccc(-c2ccccc2)cc1	3.25 µM	> 50 µM						
Cc1ccc2c(c1)/C(=N/NC(=S)N/N=C/c1cc3ccccc3c3ccccc13)C(=O)N2	> 50 µM	> 50 µM						
O=C1Nc2ccc(Br)cc2/C1=N/NC(=S)N/N=C/c1ccc(Br)cc1	4.68 µM	5.18 µM						
Cc1ccc(O)c(/C=N/NC(=S)N/N=C2\C(=O)Nc3ccc(Br)cc32)c1	> 50 µM	> 50 µM						
Cc1ccc2c(c1)/C(=N/NC(=S)N/N=C/c1c(Cl)cccc1Cl)C(=O)N2	1.79 µM	3.87 µM						
Cc1ccc2c(c1)/C(=N/NC(=S)N/N=C/c1ccc3ccccc3c1)C(=O)N2	> 50 µM	> 50 µM						
O=C1Nc2ccc(Br)cc2/C1=N/NC(=S)N/N=C/c1ccc2ccccc2c1	> 50 µM	> 50 µM						
Cc1ccc2c(c1)/C(=N/NC(=S)N/N=C/c1ccccn1)C(=O)N2	3.15 µM	2.12 µM	24.22 ×10⁶ /100microL	12.93 g/dL	5.28 ×10⁶ /mm3	189.6%	2.52 mL	7.89 ×10³ /mm3
O=C1Nc2ccc(Br)cc2/C1=N/NC(=S)N/N=C/c1c(Cl)cccc1Cl	3.53 µM	6.73 µM						
Cc1ccc2c(c1)/C(=N/NC(=S)N/N=C/c1ccccc1Br)C(=O)N2	> 50 µM	> 50 µM						
Cc1ccc(O)c(/C=N/NC(=S)N/N=C2\C(=O)Nc3ccc(C)cc32)c1	> 50 µM	> 50 µM						
O=C1Nc2ccc(Br)cc2/C1=N/NC(=S)N/N=C/c1cc2ccccc2c2ccccc12	> 50 µM	> 50 µM						
Cc1ccc2c(c1)/C(=N/NC(=S)N/N=C/c1ccc(-c3ccccc3)cc1)C(=O)N2	> 50 µM	> 50 µM						
COc1cccc2c1C(=O)c1c(O)c3c(c(O)c1C2=O)C[C@@](O)(C(=O)CO)C[C@@H]3O[C@H]1C[C@H](N)[C@H](O)[C@H](C)O1 [DOXORUBICIN]	2.05 µM	3.04 µM						
O=c1[nH]cc(F)c(=O)[nH]1 [FLUOROURACIL]			20.17 ×10⁶ /100microL	12.96 g/dL	5.21 ×10⁶ /mm3	237.9%	1.6 mL	8.86 ×10³ /mm3
